How the values were obtained:
Assay in all cases: MIC and MBC:MIC ratio, recent ocular isolates
Type in all cases: cell-based
H. influenzae = H. influenzae (N = 40), recent ocular isolates
From the text: (§1) The success of in vivo antimicrobial action depends to a large extent on the host's defense mechanisms, which ultimately sequester and kill the microorganisms that have been reduced by the bacteriostatic/bactericidal action of the antibacterial agent. Thus, it is also of interest to profile the bactericidal activity of antimicrobial agents. The assessment of in vitro bactericidal activity can be accomplished in multiple ways, for example, the time-kill method or the determination of the minimum bactericidal concentration (MBC). […] Bactericidal agents are characterized by low MBC:MIC ratios.

S. epidermidis = S. epidermidis (N = 15), recent ocular isolates
From the text: as §1

S. aureus = S. aureus (N = 30), recent ocular isolates

For `CC[C@H]1OC(=O)[C@H](C)[C@@H](O[C@H]2C[C@@](C)(OC)[C@@H](O)[C@H](C)O2)[C@H](C)[C@@H](O[C@@H]2O[C@H](C)C[C@H](N(C)C)[C@H]2O)[C@](C)(O)C[C@@H](C)CN(C)[C@H](C)[C@@H](O)[C@]1(C)O` [Azithromycin], the “% S (susceptible isolates, CLSI)” value (H. influenzae) was 100.0%, the “MIC Range” value (H. influenzae) was “≦0.004-2 μg/mL” and the MIC50 (H. influenzae; Haemophilus influenzae) was 0.5 µg/mL. The MIC90 (H. influenzae; Haemophilus influenzae) was 1 µg/mL, the “% S (susceptible isolates, CLSI)” value (S. epidermidis) was 26.7% and the MIC50 (S. epidermidis; Staphylococcus epidermidis) was > 8 µg/mL. The MIC90 (S. epidermidis; Staphylococcus epidermidis) was > 8 µg/mL, the “% S (susceptible isolates, CLSI)” value (S. aureus) was 53.3% and the MIC50 (S. aureus; Staphylococcus aureus) was 1 µg/mL. For the same compound, the MIC90 (S. aureus; Staphylococcus aureus) was > 8 µg/mL.

Reference: patent US8415342B2, “Besifloxacin ophthalmic composition for the treatment or control of infection” (Bausch & Lomb Incorporated, priority 2008, dated 2013)
